{"source": "patent US12090204B2", "about": "“Photodynamic therapy compositions and methods of use thereof” (Pinnacle Biologics, Inc., priority 2020, dated 2024)", "assay": "in vitro human skin permeation, flow through diffusion cell", "format": "in vitro ADME", "details": "24 hours post application", "experimental": "A study was completed to show the ability of the formulation to deliver the drug into human skin in an in vitro setting, while retaining the API within the appropriate skin layers.\nIn this experiment, TEWL for each diffusion cell would was measured and recorded before test article applications. A range of not more than 25 g/m2/h will be acceptable for this study. An automated in-line flow through diffusion cell system (PermeGear Collector FC 33, Version 3.1) was used to assess drug in the skin permeation experiment. Test articles were uniformly dispensed onto the skin tissue surface using a positive displacement pipette, set to deliver 7.8 μL. The study was performed under dark environment and closed to ambient conditions. […] The swabs and the tape strips were analyzed upon request. […] The separated samples were placed in respective pre-weighed labelled vials and weight of tissues were recorded.\nEpidermal and dermal samples were processed and homogenized while maintaining a dark environment using the following protocol: 500 μL of homogenizing mixture, Water: Acetonitrile, 1:1 (v/v), was added to the labelled tubes containing the skin samples. […] The following samples were analyzed for drug content: Receptor solution samples at different time-points; skin samples (epidermis and dermis for each cell at the final time point), tape strips and cotton swabs analyzed for mass balance determination. […]", "data": [{"substance": "porfimer sodium", "values": [{"measurement": "skin layer where porfimer sodium permeation was found", "value": "predominantly found in the epidermal layers of the skin"}]}]}
